Results taken from US10912820B2, “Use of immunomodulatory kits for immunotherapeutic treatment of patients with myeloid leukemias” (Modiblast Pharma GmbH, priority 2014, dated 2021).

Assay: In vivo treatment of healthy PVG.1N rats with single substances (safety data)
Conditions: i.v.; for (severe) side effects (breathing, sleep, food intake, mobility, skin, weight): Picibanil 0.35 μg/rat, PGE2 1 μg/rat, PGE1 1 μg/rat; for Flow cytometric analyzes on blood cells (Teff, Treg, CD4, CD8, NK, NKT cells) compared to placebo: data not shown
Procedure: Safety data were performed on a total of 4 rats of the healthy strain PVG.1N: they were given the clinically intended final concentrations of the single substances i.v. in the following doses: Picibanil (0.35 μg/rat), PGE2 (1 μg/rat), PGE1 (1 μg/rat) and placebo (PBS).

SMILES	(severe) side effects (breathing, sleep, food intake, mobility, skin, weight)	Flow cytometric analyzes on blood cells (Teff, Treg, CD4, CD8, NK, NKT cells) compared to placebo
CCCCC[C@H](O)/C=C/[C@H]1[C@H](O)CC(=O)[C@@H]1CCCCCCC(=O)O [PGE1, Alprostadil]	no (severe) side effects	no difference compared to the placebo controls
CCCCC[C@H](O)/C=C/[C@H]1[C@H](O)CC(=O)[C@@H]1C/C=C\CCCC(=O)O [PGE2, Prostaglandin E2]	no (severe) side effects	no difference compared to the placebo controls
